Measured values published in article PMC10654507, “A cleavable chimeric peptide with targeting and killing domains enhances LPS neutralization and antibacterial properties against multi-drug resistant E. coli” (Communications Biology, 2023).
In brackets after ≈: the same amount, converted by molar mass. Read-outs that look alike come from different tables or passages of the source. Residues, ends and D or L forms follow the SMILES beside them.

Assays:
S. aureus CVCC546 = assay type: cell-based, Staphylococcus aureus; settings: repeated three times; for MBC: lowest concentration giving 99.9% reduction of the inoculum; for MIC: microtiter broth dilution, 10^5 CFU/mL, 37 °C, 16 ~ 18 h
Procedure: The minimum inhibitory concentration (MIC) and minimum bactericidal concentration (MBC) of peptides were determined by the microtiter broth dilution method according to Clinical and Laboratory Standards Institute (CLSI) guidelines. […] PBS was used as the negative control. […] The MBC value was calculated as the lowest concentration of peptides resulting in a 99.9% reduction of the original inoculum. All experiments were repeated three times.

E. coli 0111: B4 LPS = assay: BC (BODIPY-TR-cadaverine) displacement assay, binding to LPS; design: species or system Escherichia coli; unit not given here; settings: Fig. 4a source data, mean
Procedure: The binding of peptides to LPS was determined according to the method described previously[34],[59]. In brief, E. coli 0111: B4 LPS (40 μg/mL) and BODIPY-TR-cadaverine (BC) (10 μM) were mixed in 50 mM Tris buffer (pH = 7.4) in equal proportions and added to a 96-well black plate (180 μL/well) in the dark. Different concentrations of chimeric peptide R7 and its parental (20 μL) were added into each well and detected by a fluorescence spectrophotometry at room temperature (excitation wavelength 580 nm, emission wavelength 620 nm). The change in relative fluorescence was recorded and the BC displacement rate was calculated. Polymycin B (PMB) was used as the positive control.

LPS [1] = assay type: in vivo, mouse; design: key: 1 represents a mouse death; 0 represents no death; settings: Supplementary Fig. 3b source data, LPS challenge
Procedure: Supplementary Figure 3. Therapeutic eﬀicacy of cleavable chimeric peptide R7 in the mice
challenged with MDR E. coli or LPS After the intraperitoneal injection with MDR E. coli (a) or LPS
(b) at a concentration of LD100, the mice were treated with 7 μmol/kg R7 at 0.5 h and 8 h, respectively.
The mouse survival was recorded for 7 d. The mice injected with MDR E. coli/LPS or saline were used

MDR E. coli CVCC195 [2] = assay: Lung injury score (H&E histology), E. coli-challenged mice; assay type: in vivo, mouse; settings: for lung injury score: 7 μmol/kg i.p. pre-treatment, three mice/group; for Pathological analysis of lung (lung injury score): Fig. 6b source data, peptide + E. coli, mean
Procedure: Lung injury was analyzed histologically at 12 h or 24 h. a Histopathological images of lung sections after staining with hematoxylin and eosin (H&E). Images are presented at a magnification of 100×. b Pathological analysis of lung. Lung injury involves in inflammation (such as peribronchial, perivascular, intrabronchial, and pulmonary interstitial one), bronchial exudate, and alveolar septal thickening, respectively. The specific degree of lung injury of each mouse is assessed by Score 0 (asymptomatic), Score 1 (mild), Score 2 (moderate), and Score 3 (severe), respectively. c The number of counted infiltrated inflammatory cells within processed lung sections from a. Data represent the mean ± SD of three independent experiments. Different lower-case letters indicate a significant difference between the two groups (p < 0.05).
(§1) Lung tissues were taken at 12 h and 24 h, respectively, washed with PBS, and fixed in 4% paraformaldehyde overnight. After dehydration in different concentrations of ethanol (including 75%, 85%, 90%, and 95%, respectively), the tissues were embedded in paraffin, sliced, and stained with hematoxylin. Observation was performed under a light microscope. The mice only injected with E. coli, LPS or PBS was regard as the negative or blank control.

LPS [3] = assay: Lung injury score (H&E histology), LPS-challenged mice; assay type: in vivo, mouse; settings: 7 μmol/kg pre-treatment, 24 h (implied by contrast with 12 h)
Procedure: Fig. 8 Effects of cleavable chimeric peptide R7 on lung injury in mice. […] Lung injury was analyzed histologically at 12 h or 24 h, respectively. a Histopathological images of lung sections after staining with hematoxylin and eosin (H&E). Images are presented at a magnification of 100×. b Pathological analysis of lung. Lung injury involves in inflammation (such as peribronchial, perivascular, intrabronchial, and pulmonary interstitial one), bronchial exudate, and alveolar septal thickening, respectively. The specific degree of lung injury of each mouse is assessed by Score 0 (asymptomatic), Score 1 (mild), Score 2 (moderate), and Score 3 (severe), respectively. c The number of counted infiltrated inflammatory cells within processed lung sections from (a). Data represent the mean ± SD of three independent experiments. Different lower-case letters indicate a significant difference between the two groups (p < 0.05).
as §1

furin = tested on: T1, furin; assay: Cleavage of R7 by furin in vitro (RP-HPLC); assay type: in vitro ADME; settings: human, recombinant human furin enzyme, furin 8 U/reaction, 25 °C, RP-HPLC peak area, read-out: Cleavage efficiency
T1 construct: purchased NEB (New England Biolabs) P8077
Procedure: Chimeric peptide R7 was treated with recombinant human furin enzyme (8 U/reaction; NEB P8077) in 50-μL reactions supplemented with in 20 mM HEPES, 0.1% Triton X-100, 1 mM CaCl2, 0.2 mM β-mercaptoethanol. The reaction mixtures were incubated at 25 °C for 65 h. An aliquot of 50 μL sample was taken at different time points, and analyzed by RP-HPLC or MALDI-TOF MS. […] The cleavage rate of R7 was calculated from the peak area as follows: Cleavage rate (%) = [(Area0 –Areat)/Area0] × 100, where 0 and t present digestion time[58].

MDR E. coli CVCC195 [4] = assay: Efficacy of different doses of R7 in mice challenged with MDR E. coli (survival); assay type: in vivo, mouse; design: key: 1 represents a mouse death; 0 represents no death; settings: Supplementary Fig. 4 source data, MDR E. coli challenge
Procedure: Supplementary Figure 4. Eﬀicacy of different doses of cleavable chimeric peptide R7 in the mice
challenged with MDR E. coli. Mice were intraperitoneally injected with 3.5, 7 or 14 μmol/kg R7 at 0
h (five mice/group), followed by injection with MDR E. coli CVCC195 (0.5×10^9 CFU/mouse) at 6 h.
PBS was used as control. Survival was recorded for 7 d.

[5] = event at day 2, one cell per mouse
[6] = event at day 3, one cell per mouse
[7] = event at day 7, one cell per entry

Row | SMILES | MBC (S. aureus CVCC546) | MIC (S. aureus CVCC546) | binding affinity to LPS (E. coli 0111: B4 LPS; peptide concentration 0.05 μM) | binding affinity to LPS (E. coli 0111: B4 LPS; peptide concentration 0.1 μM) | binding affinity to LPS (E. coli 0111: B4 LPS; peptide concentration 0.5 μM) | binding affinity to LPS (E. coli 0111: B4 LPS; peptide concentration 1 μM) | binding affinity to LPS (E. coli 0111: B4 LPS; peptide concentration 5 μM) | binding affinity to LPS (E. coli 0111: B4 LPS; peptide concentration 10 μM) | binding affinity to LPS (E. coli 0111: B4 LPS; peptide concentration 50 μM) | binding affinity to LPS (E. coli 0111: B4 LPS; peptide concentration 100 μM) | therapeutic efficacy, survival, single-animal event (LPS [1]; [5]) | therapeutic efficacy, survival, single-animal event (LPS [1]; [6]) | therapeutic efficacy, survival, single-animal event (LPS [1]; [7]) | lung injury score (MDR E. coli CVCC195 [2]; 12 h after E. coli infection) | lung injury score (MDR E. coli CVCC195 [2]; 24 h after E. coli infection) | Pathological analysis of lung (lung injury score) (MDR E. coli CVCC195 [2]; 12 h) | Pathological analysis of lung (lung injury score) (MDR E. coli CVCC195 [2]; 24 h) | lung injury score (LPS [3]) | further results
1 | CSCC[C@H](NC(=O)[C@H](CCCNC(=N)N)NC(=O)[C@H](Cc1c[nH]c2ccccc12)NC(=O)[C@H](C)NC(=O)[C@H](Cc1c[nH]c2ccccc12)NC(=O)[C@H](CCCNC(=N)N)NC(=O)[C@H](Cc1c[nH]c2ccccc12)NC(=O)[C@H](C)NC(=O)[C@H](CCCCN)NC(=O)[C@@H](N)Cc1ccccc1)C(=O)N[C@@H](CCCCN)C(=O)N[C@@H](CCCCN)C(=O)N[C@@H](CC(C)C)C(=O)N[C@@H](C)C(=O)N[C@@H](C)C(=O)N1CCC[C@H]1C(=O)N[C@@H](CO)C(=O)O [L7] (H-FKAWRWAWRMKKLAAPS-OH) | 36.2 µM (≈ 77.2 µg/mL) | 18.1 µM (≈ 38.6 µg/mL) | 17.2577 | 18.4019 | 19.7825 | 22.1031 | 24.1888 | 28.4883 | 44.9086 | 71.3338 | 1 | 1 | 0 | 7.7 points | 5.7 points | 6.667 | 7 | 6.3 points | 
2 | CSCC[C@H](NC(=O)[C@H](CCCNC(=N)N)NC(=O)[C@H](Cc1c[nH]c2ccccc12)NC(=O)[C@H](C)NC(=O)[C@H](Cc1c[nH]c2ccccc12)NC(=O)[C@H](CCCNC(=N)N)NC(=O)[C@H](Cc1c[nH]c2ccccc12)NC(=O)[C@H](C)NC(=O)[C@H](CCCCN)NC(=O)[C@H](Cc1ccccc1)NC(=O)[C@H](CCCNC(=N)N)NC(=O)[C@H](CCCNC(=N)N)NC(=O)[C@H](CCCCN)NC(=O)[C@H](CCCNC(=N)N)NC(=O)[C@H](CCCCN)NC(=O)[C@H](Cc1ccccc1)NC(=O)[C@H](Cc1ccccc1)NC(=O)[C@H](CO)NC(=O)[C@H](C)NC(=O)[C@H](CCCNC(=N)N)NC(=O)[C@@H](NC(=O)[C@H](CCCCN)NC(=O)[C@H](Cc1c[nH]c2ccccc12)NC(=O)[C@H](CCCNC(=N)N)NC(=O)CNC(=O)[C@H](CCC(N)=O)NC(=O)[C@@H](NC(=O)[C@@H](N)CCCNC(=N)N)C(C)C)C(C)C)C(=O)N[C@@H](CCCCN)C(=O)N[C@@H](CCCCN)C(=O)N[C@@H](CC(C)C)C(=O)N[C@@H](C)C(=O)N[C@@H](C)C(=O)N1CCC[C@H]1C(=O)N[C@@H](CO)C(=O)O [R7] (H-RVQGRWKVRASFFKRKRRFKAWRWAWRMKKLAAPS-OH) | 2.26 µM (≈ 10.1 µg/mL) | 2.26 µM (≈ 10.1 µg/mL) | 20.2273 | 21.6184 | 51.5852 | 77.8834 | 85.6571 | 94.6127 | 98.4665 | 96.0469 | 1 | 1 | 0 | 4.3 points | 2.0 points | 2.333 | 2 | 3.0 points | metabolised at 4 h (furin; digestion 4 h): 14.5%; metabolised at 8 h (furin; digestion 8 h): 17.8%; metabolised at 18 h (furin; digestion 18 h): 29.5%; metabolised at 24 h (furin; digestion 24 h): 36.2%; metabolised at 30 h (furin; digestion 30 h): 42.5%; metabolised at 44 h (furin; digestion 44 h): 52.7%; metabolised at 53 h (furin; digestion 53 h): 57.4%; metabolised at 65 h (furin; digestion 65 h): 61.8%; efficacy of different doses, survival, event (MDR E. coli CVCC195 [4]; 3.5 μmol/kg R7, day 1, one cell per mouse): 1; efficacy of different doses, survival, event (MDR E. coli CVCC195 [4]; 3.5 μmol/kg R7, day 7): 0; efficacy of different doses, survival, event (MDR E. coli CVCC195 [4]; 7 μmol/kg R7, day 1): 0; efficacy of different doses, survival, event (MDR E. coli CVCC195 [4]; 7 μmol/kg R7, day 2): 0; efficacy of different doses, survival, event (MDR E. coli CVCC195 [4]; 7 μmol/kg R7, day 3): 0; efficacy of different doses, survival, event (MDR E. coli CVCC195 [4]; 7 μmol/kg R7, day 4): 0; efficacy of different doses, survival, event (MDR E. coli CVCC195 [4]; 7 μmol/kg R7, day 7): 0; efficacy of different doses, survival, event (MDR E. coli CVCC195 [4]; 14 μmol/kg R7, day 1): 0; efficacy of different doses, survival, event (MDR E. coli CVCC195 [4]; 14 μmol/kg R7, day 2): 0; efficacy of different doses, survival, event (MDR E. coli CVCC195 [4]; 14 μmol/kg R7, day 3): 0; efficacy of different doses, survival, event (MDR E. coli CVCC195 [4]; 14 μmol/kg R7, day 5): 0; efficacy of different doses, survival, event (MDR E. coli CVCC195 [4]; 14 μmol/kg R7, day 7): 0
